Reference: patent publication US10028956B2, “Methods of treating various cancers using an AXL/cMET inhibitor in combination with other agents” (Ignyta, Inc., priority 2013, dated 2018)
Marks after values point to notes of the source that are not given here.

How the values were obtained:
Assay type in all cases: in vivo, mice
[1] = tested on: CTG-0165 erlotinib-insensitive primary NSCLC human TumorGraft; assay: NSCLC TumorGraft model CTG-0165; details: CTG-0165, 37 days, 10 mg/kg iv/q4dx3
Experimental: (§1) Methods (for the experiments shown in FIGS. 10 and 11) • Female immunocompromised nu/nu mice (Harlan) between 6-9 weeks of age were housed on irradiated papertwist-enriched ⅛″ corncob bedding (Sheperd) in individual HEPA ventilated cages (Innocage® IVC, Innovive USA) on a 12-hour light-dark cycle at 68-74° F. (20-23° C.) and 30-70% humidity. Animals were fed water ad libitum (reverse osmosis, 2 ppm Cl2) and an irradiated Test rodent diet (Teklad 2919) consisting of 19% protein, 9% fat, and 4% fiber. • Tumor Models: Champions TumorGraft models of NSCLC are owned by Champions Oncology. In this study, animals were implanted unilaterally on the right flank with tumor fragments harvested from host animals. […] Erlotinib (manufacturer: OSI Pharmaceuticals; National Drug Code: 50242-062-01; Lot #: US0002) was formulated using 100% PEG-400 as the vehicle according to manufacturer's specifications.
(§2) Efficacy measurements: Beginning Day 0, tumor dimensions were measured twice weekly by digital caliper (Fowler Ultra-Cal IV) and data including individual and mean estimated tumor volumes (Mean TV±SEM) were recorded for each group; tumor volume was calculated using the formula TV=width^2×length×0.52. At study completion, percent tumor growth inhibition (% TGI) values were calculated and reported for each treatment group (T) versus control (C) using initial (i) and final (f) tumor measurements by the formula: % TGI=1−Tf−Ti/Cf−C; single agent or combination therapies resulting in a TGI>50 at study completion are considered active in the tested model at the evaluated treatment regimen according to NCI guidelines. Individual mice reporting a tumor volume ≤50% of the Day 0 measurement for two consecutive measurements over a seven day period were considered partial responders (PR). If the PR persisted until study completion, percent tumor regression (% TR) was determined using the formula: % TR=1−Tf/Ti×100; a mean value was calculated if multiple PR mice occurred in one group. Individual mice lacking palpable tumors (<4×4 mm^2 for two consecutive measurements over a seven day period) were classified as complete responders (CR); a CR that persisted until study completion was considered a tumor-free survivor (TFS). TFS animals are excluded from efficacy calculations. Statistical differences in tumor volume were determined using a two-tailed One-Way Analysis of Variance (ANOVA) followed by the Dunett's multiple comparisons test comparing treated groups with control and combinations with standard agent alone when possible. All data collected in this study was managed electronically and stored on a redundant server system.

[2] = tested on: CTG-0157 primary NSCLC human TumorGraft; assay: NSCLC TumorGraft model CTG-0157; details: CTG-0157, 14 days, 10 mg/kg iv/q4dx3
Experimental: as §1
as §2, with “Individual mice reporting a tumor volume ≤50% of the Day 0 measurement for two consecutive measurements over a seven day period were considered partial responders (PR).” left out, “Individual mice lacking palpable tumors (<4×4 mm^2 for two consecutive measurements over a seven day period) were classified as complete responders (CR); a CR that persisted until study completion was considered a tumor-free survivor (TFS). TFS animals are excluded from efficacy calculations.” left out, “All data collected in this study was managed electronically and stored on a redundant server system.” left out

[3] = tested on: CTG-0159 primary NSCLC human TumorGraft; assay: NSCLC TumorGraft model CTG-0159; details: CTG-0159, 14 days, 10 mg/kg iv/q4dx3
Experimental: as §1
as §2, with “Individual mice reporting a tumor volume ≤50% of the Day 0 measurement for two consecutive measurements over a seven day period were considered partial responders (PR).” left out, “Individual mice lacking palpable tumors (<4×4 mm^2 for two consecutive measurements over a seven day period) were classified as complete responders (CR); a CR that persisted until study completion was considered a tumor-free survivor (TFS). TFS animals are excluded from efficacy calculations.” left out, “All data collected in this study was managed electronically and stored on a redundant server system.” left out

[4] = tested on: CTG-0192 erlotinib-sensitive NSCLC TumorGraft; assay: NSCLC TumorGraft model CTG-0192
Experimental: as §1, §2

[5] = tested on: CTG-0170 erlotinib-insensitive primary NSCLC human TumorGraft; assay: NSCLC TumorGraft model CTG-0170; details: CTG-0170, 10 days, 10 mg/kg iv/q4dx3
Experimental: as §1, §2

| Compound | % Tumor Growth Inhibition [1] [%*] | % Tumor Growth Inhibition [2] [%] | % Tumor Growth Inhibition [3] [%*] | % Tumor Growth Inhibition ([4]; CTG-0192, 32 days, 10 mg/kg iv/q4dx3) [%*] | % Tumor Growth Inhibition [5] [%*] | day of acquired resistance ([4]; CTG-0192, 35 mg/kg, po, qd×34) [days] | tumor regrowth after discontinuation of dosing (day 34) ([4]; CTG-0192, 35 mg/kg, po, qd×34) | tumor response during dosing ([4]; CTG-0192, 35 mg/kg, po, qd×34) |
| --- | --- | --- | --- | --- | --- | --- | --- | --- |
| CC(=O)O[C@H]1C(=O)[C@@]2(C)[C@H]([C@H](OC(=O)c3ccccc3)[C@]3(O)C[C@H](OC(=O)[C@H](O)[C@@H](NC(=O)c4ccccc4)c4ccccc4)C(C)=C1C3(C)C)[C@]1(OC(C)=O)CO[C@@H]1C[C@@H]2O [Paclitaxel, reference compound] | 56 | 41 | 25 | 105 | 77 |  |  |  |
| C#Cc1cccc(Nc2ncnc3cc(OCCOC)c(OCCOC)cc23)c1 [erlotinib, reference compound] |  |  |  |  |  | ~29 | rate of tumor regrowth was similar to control/vehicle | initial sensitivity followed by acquired erlotinib-resistance |
